From ChEMBL document CHEMBL1201862, “PubChem BioAssay data set” (2004)
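These data come from cells grown in 96-well plates and exposed to compound for 48 hours at five concentrations. At the GI50, growth is halved.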 Calls of active or inactive are those of the source. Cut-off read from the data, not from the text of the source: active = GI50 up to about 1.1 µM and inactive = higher.

Assays:
Assay in all cases: NCI-60 cell line screen, 48 h
[1] = system: SF-268
[2] = system: HCC 2998
[3] = system: SK-OV-3
[4] = system: A549
[5] = system: MDA-MB-231
[6] = system: ACHN
[7] = system: A498
[8] = system: NCI-H23
[9] = system: RPMI-8226
[10] = system: Malme-3M
[11] = system: SW-620
[12] = system: KM12
[13] = system: OVCAR-3
[14] = system: SN12C
[15] = system: PC-3
[16] = system: HCT-15
[17] = system: LOX IMVI
[18] = system: NCI-H226
[19] = system: UO-31
[20] = system: NCI/ADR-RES

| Structure (SMILES) | GI50 [1] | GI50 [2] | GI50 [3] | GI50 [4] | GI50 [5] | GI50 [6] | GI50 [7] | GI50 [8] | GI50 [9] | GI50 [10] | GI50 [11] | GI50 [12] | GI50 [13] | GI50 [14] | GI50 [15] | GI50 [16] [µM] | GI50 [17] | GI50 [18] | GI50 [19] | GI50 [20] |
| --- | --- | --- | --- | --- | --- | --- | --- | --- | --- | --- | --- | --- | --- | --- | --- | --- | --- | --- | --- | --- |
| COc1cccc(OC)c1NC(=O)C(=O)Nn1c(NNC(=O)c2ccncc2)nc2ccccc2c1=O | > 100 µM (inactive) | > 100 µM (inactive) | > 100 µM (inactive) | > 100 µM (inactive) | > 100 µM (inactive) | > 100 µM (inactive) | > 100 µM (inactive) | > 100 µM (inactive) | > 100 µM (inactive) | > 100 µM (inactive) | > 100 µM (inactive) | > 100 µM (inactive) | > 100 µM (inactive) | > 100 µM (inactive) | > 100 µM (inactive) | > 100 | > 100 µM (inactive) | > 100 µM (inactive) | > 100 µM (inactive) | > 100 µM (inactive) |
| CCC1CC(C)C(O)/C=C/C=C/CC(C)OC(=O)CC(O)C(OC)C1OC1OC(C)CC(O)(C(C)=O)C1O (stereo not given) | 83.6 µM (inactive) | 21.7 µM (inactive) | > 100 µM (inactive) | > 100 µM (inactive) | 16 µM (inactive) | 49.5 µM (inactive) | 77.4 µM (inactive) | 45.2 µM (inactive) | 48.8 µM (inactive) | 38.8 µM (inactive) | > 100 µM (inactive) | 35.2 µM (inactive) | 20.3 µM (inactive) | 42.1 µM (inactive) | 66.1 µM (inactive) | 23.9 | > 100 µM (inactive) | 47.6 µM (inactive) | 47.3 µM (inactive) | 49 µM (inactive) |
| CCOC(=O)C1=C(C(=O)OCC)SC2(S1)C(C(=O)OCC)=C(C(=O)OCC)Sc1c2ssc1=O | 1.97 µM (inactive) | 2.42 µM (inactive) | 6.12 µM (inactive) | 2.26 µM (inactive) | 2 µM (inactive) | 1.72 µM (inactive) | 6.15 µM (inactive) | 1.93 µM (inactive) | 1.59 µM (inactive) | 1.98 µM (inactive) | 0.361 µM (active) | 4.52 µM (inactive) | 1.69 µM (inactive) | 0.918 µM (active) | 1.44 µM (inactive) | 0.912 | 0.239 µM (active) | 22.1 µM (inactive) | 1.54 µM (inactive) | 2.71 µM (inactive) |
| CO[C@H]1[C@@H](O)[C@@H](C)O[C@@H](O[C@H]2CC[C@@]3(C)[C@H](CC[C@@H]4[C@@H]3CC[C@]3(C)[C@@H](C5=CC(=O)OC5)CC[C@]43O)C2)[C@@H]1O [ODOROSIDE H] | 0.00422 µM (active) | 0.0149 µM (active) | 0.00964 µM (active) | 0.00288 µM (active) | 0.0413 µM (active) | 0.00304 µM (active) | 0.0787 µM (active) | 0.00462 µM (active) | 0.0111 µM (active) | 0.00441 µM (active) | < 0.0025 µM (active) | 0.0112 µM (active) | 0.00531 µM (active) | 0.00467 µM (active) | 0.00426 µM (active) | 0.00766 | 0.00689 µM (active) | 0.0488 µM (active) | 0.00454 µM (active) | 0.00548 µM (active) |
| O=C1C2CCCCC2C(=O)N1n1c(Cc2ccc(Cl)cc2)n[nH]c1=O (stereo not given) | > 100 µM (inactive) | > 100 µM (inactive) | > 100 µM (inactive) | > 100 µM (inactive) | > 100 µM (inactive) | > 100 µM (inactive) | > 100 µM (inactive) | > 100 µM (inactive) | > 100 µM (inactive) | > 100 µM (inactive) | > 100 µM (inactive) | > 100 µM (inactive) | > 100 µM (inactive) | > 100 µM (inactive) | > 100 µM (inactive) | > 100 | > 100 µM (inactive) | > 100 µM (inactive) | > 100 µM (inactive) | > 100 µM (inactive) |
| CC(=O)NCCC1CN(C(=O)/C=C/I)c2ccccc21 (stereo not given) | 9.08 µM (inactive) | 15.9 µM (inactive) | 14.7 µM (inactive) | 17.2 µM (inactive) | 2.91 µM (inactive) | 6.59 µM (inactive) | 6.98 µM (inactive) | 11.9 µM (inactive) | 0.292 µM (active) | 13 µM (inactive) | 2.1 µM (inactive) | 1.24 µM (inactive) | 5.86 µM (inactive) | 3.93 µM (inactive) | 8.81 µM (inactive) | 4.93 | 1.56 µM (inactive) | 14.5 µM (inactive) | 2.89 µM (inactive) | 10.1 µM (inactive) |
| Cc1cc(S(=O)(=O)Nc2n[nH]c(Nc3ccccc3)n2)c(S)cc1Cl | > 10 µM (inactive) | > 10 µM (inactive) | > 10 µM (inactive) | > 10 µM (inactive) | > 10 µM (inactive) | > 10 µM (inactive) | > 10 µM (inactive) | > 10 µM (inactive) | > 10 µM (inactive) | > 10 µM (inactive) | > 10 µM (inactive) | > 10 µM (inactive) | > 10 µM (inactive) | > 10 µM (inactive) | > 10 µM (inactive) | > 10 | > 10 µM (inactive) | > 10 µM (inactive) | > 10 µM (inactive) | > 10 µM (inactive) |
